Toxic doses and inconclusive results are not listed. The calls were made as follows: active = survival T/C of 150% or more; inactive = T/C below 125% in these data.
Tested on: CD2F1 mice, L1210 leukemia ip, survival T/C
Assay: NCI In Vivo Anticancer Drug Screen. Data for tumor model L1210 Leukemia (intraperitoneal) in CD2F1 (CDF1) mice
Conditions: higher = longer survival
Outline: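 Each value reflects a quotient of treated over vehicle control outcomes in mice with a transplanted tumor.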

[1] = endpoint: mean survival time, dose: 100.0 mg/kg/injection, schedule: Q04DX003 (ip), vehicle: saline with Tween-80
[2] = endpoint: mean survival time, dose: 200.0 mg/kg/injection, schedule: Q04DX003 (ip), vehicle: saline with Tween-80
[3] = endpoint: mean survival time, dose: 400.0 mg/kg/injection, schedule: Q04DX003 (ip), vehicle: saline with Tween-80
[4] = endpoint: mean survival time, dose: 100.0 mg/kg/injection, schedule: Q01DX001 (ip), vehicle: saline with Tween-80
[5] = endpoint: mean survival time, dose: 200.0 mg/kg/injection, schedule: Q01DX001 (ip), vehicle: saline with Tween-80
[6] = endpoint: mean survival time, dose: 400.0 mg/kg/injection, schedule: Q01DX001 (ip), vehicle: saline with Tween-80
[7] = endpoint: mean survival time, dose: 100.0 mg/kg/injection, schedule: Q01DX009 (ip), vehicle: saline with Tween-80
[8] = endpoint: mean survival time, dose: 200.0 mg/kg/injection, schedule: Q01DX009 (ip), vehicle: saline with Tween-80
[9] = endpoint: mean survival time, dose: 400.0 mg/kg/injection, schedule: Q01DX009 (ip), vehicle: saline with Tween-80
[10] = endpoint: mean survival time, dose: 25.0 mg/kg/injection, schedule: Q04DX002 (ip), vehicle: saline
[11] = endpoint: mean survival time, dose: 50.0 mg/kg/injection, schedule: Q04DX002 (ip), vehicle: saline
[12] = endpoint: mean survival time, dose: 25.0 mg/kg/injection, schedule: Q04DX002 (ip), vehicle: saline with Tween-80
[13] = endpoint: mean survival time, dose: 100.0 mg/kg/injection, schedule: Q01DX001 (ip), vehicle: saline

Measured: T/C

CC1(C)OCC(C(O)C(O)C(O)CO)O1 (stereo unspecified)
inactive: endpoint: mean survival time, dose: 50.0 mg/kg/injection, schedule: Q01DX009 (ip), vehicle: saline 102 % of control | endpoint: mean survival time, dose: 100.0 mg/kg/injection, schedule: Q01DX009 (ip), vehicle: saline 98 % of control | endpoint: mean survival time, dose: 200.0 mg/kg/injection, schedule: Q01DX009 (ip), vehicle: saline 102 % of control

O=S(=O)(O)SCc1ccccc1
inactive: [1] 97 % of control | [2] 92 % of control | [3] 98 % of control

O=C(NCCCl)Nc1cccc(Cl)c1
inactive: [4] 87 % of control | [5] 102 % of control | [6] 90 % of control

Cc1cc2c3ccccc3nc(C(F)(F)F)n2n1
inactive: endpoint: mean survival time, dose: 100.0 mg/kg/injection, schedule: Q04DX003 (ip), vehicle: saline sonified 96 % of control | endpoint: mean survival time, dose: 200.0 mg/kg/injection, schedule: Q04DX003 (ip), vehicle: saline sonified 100 % of control | endpoint: mean survival time, dose: 400.0 mg/kg/injection, schedule: Q04DX003 (ip), vehicle: saline sonified 100 % of control

O=[N+]([O-])c1ccc2c(c1)COCO2
inactive: [7] 97 % of control | [8] 97 % of control | [9] 96 % of control

[O]=[Zr]
inactive: endpoint: mean survival time, dose: 75.0 mg/kg/injection, schedule: Q01DX001 (ip), vehicle: saline 94 % of control | endpoint: mean survival time, dose: 150.0 mg/kg/injection, schedule: Q01DX001 (ip), vehicle: saline 97 % of control | endpoint: mean survival time, dose: 300.0 mg/kg/injection, schedule: Q01DX001 (ip), vehicle: saline 98 % of control

CC12CCC(=O)C=C1CCC1C2C(=O)CC2(C)C1CCC2(O)C(=O)Cn1cc(F)c(=O)[nH]c1=O (stereo unspecified)
inactive: endpoint: mean survival time, dose: 12.5 mg/kg/injection, schedule: Q04DX003 (ip), vehicle: Klucel (hydroxypropylcellulose) (HPC) 100 % of control | endpoint: mean survival time, dose: 25.0 mg/kg/injection, schedule: Q04DX003 (ip), vehicle: Klucel (hydroxypropylcellulose) (HPC) 103 % of control | endpoint: mean survival time, dose: 50.0 mg/kg/injection, schedule: Q04DX003 (ip), vehicle: Klucel (hydroxypropylcellulose) (HPC) 100 % of control | endpoint: mean survival time, dose: 100.0 mg/kg/injection, schedule: Q04DX003 (ip), vehicle: Klucel (hydroxypropylcellulose) (HPC) 96 % of control | endpoint: mean survival time, dose: 200.0 mg/kg/injection, schedule: Q04DX003 (ip), vehicle: Klucel (hydroxypropylcellulose) (HPC) 94 % of control

CC1CC2OC(=O)C(O)(CO)C2CC2(C)C(=O)C=CC12 (stereo unspecified)
inactive: [10] 102 % of control | [11] 107 % of control

O=C(CC(=O)C(F)(F)C(F)(F)C(F)(F)F)C(F)(F)F.O=C(CC(=O)C(F)(F)C(F)(F)C(F)(F)F)C(F)(F)F.[Cu]
inactive: endpoint: mean survival time, dose: 3.13 mg/kg/injection, schedule: Q04DX002 (ip), vehicle: saline with Tween-80 90 % of control | endpoint: mean survival time, dose: 6.25 mg/kg/injection, schedule: Q04DX002 (ip), vehicle: saline with Tween-80 87 % of control | endpoint: mean survival time, dose: 12.5 mg/kg/injection, schedule: Q04DX002 (ip), vehicle: saline with Tween-80 102 % of control | [12] 98 % of control | endpoint: median survival time, dose: 25.0 mg/kg/injection, schedule: Q04DX002 (ip), vehicle: saline with Tween-80 111 % of control

CC1(C)N=C(N)N=C(N)N1c1ccccc1Cl
inactive: [10] 103 % of control | [11] 100 % of control

CCOC(=O)N(N=O)c1ccc2c(c1)C(=O)c1ccccc1-2
inactive: endpoint: mean survival time, dose: 100.0 mg/kg/injection, schedule: Q01DX001 (ip), vehicle: carboxymethylcellulose (CMC) 103 % of control | endpoint: mean survival time, dose: 200.0 mg/kg/injection, schedule: Q01DX001 (ip), vehicle: carboxymethylcellulose (CMC) 97 % of control | endpoint: mean survival time, dose: 400.0 mg/kg/injection, schedule: Q01DX001 (ip), vehicle: carboxymethylcellulose (CMC) 94 % of control

O=[N+]([O-])c1ccc(CSc2ncnc3c2ncn3C2OC(CO)C(O)C2O)cc1 (stereo unspecified)
inactive: endpoint: median survival time, dose: 0.1 mg/kg/injection, schedule: Q01DX009 (ip), vehicle: saline 100 % of control | endpoint: median survival time, dose: 1.0 mg/kg/injection, schedule: Q01DX009 (ip), vehicle: saline 105 % of control | endpoint: median survival time, dose: 10.0 mg/kg/injection, schedule: Q01DX009 (ip), vehicle: saline 107 % of control

O=C(NCCc1c[nH]c2ccccc12)c1cccnc1
inactive: endpoint: mean survival time, dose: 100.0 mg/kg/injection, schedule: Q04DX003 (ip), vehicle: acetone 98 % of control | endpoint: mean survival time, dose: 200.0 mg/kg/injection, schedule: Q04DX003 (ip), vehicle: acetone 96 % of control | endpoint: mean survival time, dose: 400.0 mg/kg/injection, schedule: Q04DX003 (ip), vehicle: acetone 98 % of control

O=[N+]([O-])c1ccc(C(O)C(Br)[N+](=O)[O-])cc1 (stereo unspecified)
inactive: [7] 93 % of control | [1] 101 % of control | [8] 94 % of control | [2] 98 % of control | [9] 87 % of control | [3] 95 % of control

O=C(Nc1ccccc1)Nc1cc(Cl)ccc1O
inactive: [4] 98 % of control | [5] 98 % of control | [6] 91 % of control

CC1(CC2SCCCS2)SCCCS1
inactive: [12] 96 % of control | endpoint: mean survival time, dose: 50.0 mg/kg/injection, schedule: Q04DX002 (ip), vehicle: saline with Tween-80 93 % of control | endpoint: mean survival time, dose: 100.0 mg/kg/injection, schedule: Q04DX002 (ip), vehicle: saline with Tween-80 96 % of control | endpoint: mean survival time, dose: 200.0 mg/kg/injection, schedule: Q04DX002 (ip), vehicle: saline with Tween-80 86 % of control

C#CC(CC(C)CC(C)(C)C)N(C)C (stereo unspecified)
inactive: [7] 98 % of control

CC(=O)c1ccc[n+](C)c1
inactive: endpoint: mean survival time, dose: 100.0 mg/kg/injection, schedule: Q04DX003 (ip), vehicle: saline 104 % of control | endpoint: mean survival time, dose: 200.0 mg/kg/injection, schedule: Q04DX003 (ip), vehicle: saline 104 % of control

COC(=O)c1ccccc1SSc1ccccc1C(=O)OC
inactive: [7] 93 % of control | [8] 98 % of control | [9] 93 % of control

COc1cc(Cc2nc(Cl)cc(Cl)n2)cc(OC)c1OC
inactive: [7] 105 % of control | [1] 95 % of control | [8] 97 % of control | [2] 93 % of control | [9] 103 % of control | [3] 97 % of control

CC(C)CCNC(=O)CI
inactive: [13] 101 % of control | endpoint: mean survival time, dose: 200.0 mg/kg/injection, schedule: Q01DX001 (ip), vehicle: saline 95 % of control

CCN(CC)CCC(=O)c1ccc2ccc3ccccc3c2c1
inactive: endpoint: mean survival time, dose: 50.0 mg/kg/injection, schedule: Q01DX001 (ip), vehicle: saline 93 % of control | [13] 89 % of control

CC1(C(=O)O)OC12CCCCC2 (stereo unspecified)
inactive: [7] 107 % of control | [8] 108 % of control | [9] 108 % of control

CC(C)(C)C(=O)CC(=O)C(C)(C)C.CC(C)(C)C(=O)CC(=O)C(C)(C)C.CC(C)(C)C(=O)CC(=O)C(C)(C)C.[La]
inactive: [1] 94 % of control | [2] 101 % of control | [3] 97 % of control

CCSC(=O)CC
inactive: [7] 93 % of control | [8] 98 % of control

O=C(c1ccccc1)C(CC[P+](c1ccccc1)(c1ccccc1)c1ccccc1)(OBr)c1ccccc1 (stereo unspecified)
inactive: endpoint: mean survival time, dose: 6.25 mg/kg/injection, schedule: Q01DX001 (ip), vehicle: saline with Tween-80 112 % of control | endpoint: mean survival time, dose: 12.5 mg/kg/injection, schedule: Q01DX001 (ip), vehicle: saline with Tween-80 97 % of control | endpoint: mean survival time, dose: 25.0 mg/kg/injection, schedule: Q01DX001 (ip), vehicle: saline with Tween-80 101 % of control

— PubChem BioAssay AID256 (DTP/NCI, 2004)
